Earlier results, collected in patent US20150376703A1, “METHOD AND SYSTEM TO PREDICT RESPONSE TO PAIN TREATMENTS” (PATHWAY GENOMICS CORPORATION, priority 2013, published 2015).

Legend:
[1] = molecular target: T1, KCNE2 (T8A in MiRP 1) (Homo sapiens, UniProt Q12809+Q9Y6J6, T8A)
T1 construct: host or cells: patients (endogenous protein)

[2] = test system: Glycoprotein IIIa (PLA1/A2) subunit of glycoprotein IIb/IIIa; conditions: patients carrying the PLA2 polymorphism
[3] = molecular target: T2, 5-Lipoxygenase (ALOX5) (Homo sapiens, UniProt P09917); conditions: patients who share a specific tandem repeat in the promoter
T2 construct: host or cells: patients (endogenous enzyme)
T2 sequence (P09917 1-674): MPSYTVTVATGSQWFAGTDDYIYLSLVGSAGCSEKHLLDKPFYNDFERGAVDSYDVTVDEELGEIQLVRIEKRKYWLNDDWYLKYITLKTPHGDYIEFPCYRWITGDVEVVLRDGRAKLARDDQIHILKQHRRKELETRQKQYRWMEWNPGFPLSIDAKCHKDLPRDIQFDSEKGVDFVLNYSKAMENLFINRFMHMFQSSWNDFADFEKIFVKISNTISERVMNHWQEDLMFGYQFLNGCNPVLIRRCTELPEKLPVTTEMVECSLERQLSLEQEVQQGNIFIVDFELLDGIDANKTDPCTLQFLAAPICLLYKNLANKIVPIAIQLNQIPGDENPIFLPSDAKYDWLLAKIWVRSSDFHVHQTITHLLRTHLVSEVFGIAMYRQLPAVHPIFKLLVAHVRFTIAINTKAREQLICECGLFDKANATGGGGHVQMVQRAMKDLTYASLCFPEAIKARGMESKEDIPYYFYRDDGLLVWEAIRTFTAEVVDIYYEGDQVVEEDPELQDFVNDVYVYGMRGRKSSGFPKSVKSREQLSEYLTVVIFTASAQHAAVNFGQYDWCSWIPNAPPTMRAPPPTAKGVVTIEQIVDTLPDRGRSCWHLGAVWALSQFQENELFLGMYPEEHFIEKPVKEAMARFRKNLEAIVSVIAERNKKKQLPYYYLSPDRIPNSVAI

[4] = molecular target: T3, ACE (I/D) (Homo sapiens, UniProt P12821); conditions: patients bearing the ACE-II-Allele
T3 construct: host or cells: patients (endogenous enzyme)
T3 sequence (P12821 30-1306): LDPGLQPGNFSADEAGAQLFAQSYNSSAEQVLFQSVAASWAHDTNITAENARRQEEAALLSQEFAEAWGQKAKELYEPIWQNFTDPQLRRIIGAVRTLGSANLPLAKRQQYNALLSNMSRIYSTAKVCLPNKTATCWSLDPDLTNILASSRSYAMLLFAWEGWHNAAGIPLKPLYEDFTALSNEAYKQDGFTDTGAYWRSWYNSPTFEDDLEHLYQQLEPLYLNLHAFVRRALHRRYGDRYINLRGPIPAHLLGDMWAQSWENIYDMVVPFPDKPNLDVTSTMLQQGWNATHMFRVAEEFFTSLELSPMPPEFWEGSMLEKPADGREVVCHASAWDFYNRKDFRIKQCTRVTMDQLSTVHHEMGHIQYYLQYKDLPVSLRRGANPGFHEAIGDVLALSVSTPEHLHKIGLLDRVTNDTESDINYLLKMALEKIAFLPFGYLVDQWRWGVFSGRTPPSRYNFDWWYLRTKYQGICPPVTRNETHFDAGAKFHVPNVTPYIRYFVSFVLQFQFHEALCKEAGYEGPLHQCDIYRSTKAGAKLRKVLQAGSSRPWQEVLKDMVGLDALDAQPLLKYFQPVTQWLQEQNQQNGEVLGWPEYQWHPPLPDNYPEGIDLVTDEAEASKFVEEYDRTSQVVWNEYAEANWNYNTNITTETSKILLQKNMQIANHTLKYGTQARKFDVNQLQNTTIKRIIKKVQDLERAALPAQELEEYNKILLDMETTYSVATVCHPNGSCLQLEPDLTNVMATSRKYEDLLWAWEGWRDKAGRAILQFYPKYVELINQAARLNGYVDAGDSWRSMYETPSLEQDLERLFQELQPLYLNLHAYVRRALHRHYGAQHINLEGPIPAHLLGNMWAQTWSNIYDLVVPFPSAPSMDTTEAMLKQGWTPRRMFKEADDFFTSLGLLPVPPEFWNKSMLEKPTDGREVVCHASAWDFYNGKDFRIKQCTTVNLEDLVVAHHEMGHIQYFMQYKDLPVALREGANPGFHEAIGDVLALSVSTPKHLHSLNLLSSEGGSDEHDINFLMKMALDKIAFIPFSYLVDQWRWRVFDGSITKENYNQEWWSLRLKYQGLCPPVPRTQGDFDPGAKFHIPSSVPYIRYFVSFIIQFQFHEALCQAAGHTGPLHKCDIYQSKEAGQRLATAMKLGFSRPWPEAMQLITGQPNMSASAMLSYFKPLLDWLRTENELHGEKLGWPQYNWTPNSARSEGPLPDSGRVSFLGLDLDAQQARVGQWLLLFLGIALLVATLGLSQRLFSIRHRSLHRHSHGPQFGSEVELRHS

[5] = test system: Alpha-Adducin; conditions: patients who share the 460Gly/Trp polymorphism

T1 sequence (Q9Y6J6 whole entry T8A): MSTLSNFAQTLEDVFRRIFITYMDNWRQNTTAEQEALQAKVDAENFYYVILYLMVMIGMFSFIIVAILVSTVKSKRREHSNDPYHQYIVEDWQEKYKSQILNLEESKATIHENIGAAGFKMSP
T1 sequence (Q12809 whole entry): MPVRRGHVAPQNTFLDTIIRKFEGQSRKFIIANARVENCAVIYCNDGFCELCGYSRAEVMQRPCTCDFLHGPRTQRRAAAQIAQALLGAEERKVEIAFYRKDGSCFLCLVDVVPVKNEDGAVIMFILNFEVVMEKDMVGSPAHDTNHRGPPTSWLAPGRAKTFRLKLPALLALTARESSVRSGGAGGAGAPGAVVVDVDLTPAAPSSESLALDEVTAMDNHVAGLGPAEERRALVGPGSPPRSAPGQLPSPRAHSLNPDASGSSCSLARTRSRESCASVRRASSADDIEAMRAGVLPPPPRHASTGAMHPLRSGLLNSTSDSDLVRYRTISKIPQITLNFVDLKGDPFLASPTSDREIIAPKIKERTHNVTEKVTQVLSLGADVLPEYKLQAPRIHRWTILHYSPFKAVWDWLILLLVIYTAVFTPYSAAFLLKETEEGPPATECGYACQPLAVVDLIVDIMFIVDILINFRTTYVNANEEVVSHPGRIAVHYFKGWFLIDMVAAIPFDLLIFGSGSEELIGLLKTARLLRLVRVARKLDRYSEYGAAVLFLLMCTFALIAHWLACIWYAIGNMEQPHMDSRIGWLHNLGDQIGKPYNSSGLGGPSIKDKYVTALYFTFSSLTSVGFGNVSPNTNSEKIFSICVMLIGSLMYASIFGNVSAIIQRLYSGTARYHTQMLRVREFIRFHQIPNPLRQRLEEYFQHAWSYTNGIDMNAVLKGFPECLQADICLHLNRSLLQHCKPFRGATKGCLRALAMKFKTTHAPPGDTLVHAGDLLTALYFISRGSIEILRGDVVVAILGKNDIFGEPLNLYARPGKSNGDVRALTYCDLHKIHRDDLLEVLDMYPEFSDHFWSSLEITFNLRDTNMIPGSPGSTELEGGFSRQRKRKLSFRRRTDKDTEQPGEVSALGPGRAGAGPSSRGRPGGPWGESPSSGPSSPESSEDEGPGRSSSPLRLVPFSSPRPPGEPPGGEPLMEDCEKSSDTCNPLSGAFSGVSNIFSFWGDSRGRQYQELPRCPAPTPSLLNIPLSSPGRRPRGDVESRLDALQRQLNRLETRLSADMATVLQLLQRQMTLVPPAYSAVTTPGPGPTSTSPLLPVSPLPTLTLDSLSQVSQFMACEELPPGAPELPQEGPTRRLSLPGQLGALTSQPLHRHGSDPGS

Molecule: O=c1[nH]c2ccccc2n1CCCN1CCN(C(c2ccccc2)c2ccccc2)CC1 [Oxatomid]
- Clinical Result: adverse effect [1]: Drug induced Long-QT-

Molecule: CC(=O)Oc1ccccc1C(=O)O [Aspirin]
- Clinical Result: antiplatelet effect [2]: Reduced response in patients

Molecule: CC(c1cc2ccccc2s1)N(O)C(N)=O (centres unmarked) [Zileuton]
- Clinical Result [3]: No effect in patients who

Molecule: CCOC(=O)[C@H](CCc1ccccc1)N[C@@H](C)C(=O)N1CCC[C@H]1C(=O)O [enalapril]
- Clinical Result: response [4]: Better response of patients

Molecule: NS(=O)(=O)c1cc2c(cc1Cl)NCNS2(=O)=O [Hydrochlorothiazide]
- Clinical Result: sensitivity [5]: hypertension). Higher

Molecule: Cc1cc(NS(=O)(=O)c2ccc(N)cc2)no1 [Sulfamethoxazol]
- Clinical Result: adverse effect [1]: Drug induced Long-QT-

Molecule: C[C@H](N[C@@H](CCc1ccccc1)C(=O)O)C(=O)N1CCC[C@H]1C(=O)O [Enalaprilat]
- Clinical Result: response [4]: Better response of patients

B1: Abciximab (antibody, chains of the INN, looked up, V domains shown)
VH: EVQLQQSGTVLARPGASVKMSCEASGYTFTNYWMHWVKQRPGQGLEWIGAIYPGNSDTSYIQKFKGKAKLTAVTSTTSVYMELSSLTNEDSAVYYCTLYDGYYVFAYWGQGTLVTVSA
VL: EIVLTQSPVTLSVTPGDSVSLSCRASRDISNNLHWFQQTSHESPRLLIKYASQSMSGIPSRFSGSGSGTDFTLSINSVETEDFGMYFCQQTNSWPYTFGGGTKLEIK
- Clinical Result: antiplatelet effect [2]: Reduced response in patients
